Experimental data as given in patent publication US8680133B2, “Alkyl indole-3-carbinol-derived antitumor agents” (The Ohio State University Research Foundation, priority 2009, dated 2014).
“Also recorded” adds a separate entry of the source.

Legend:
[1] = test system: MCF7; assay: NCI60 screening, Breast Cancer, MCF7; type: cell-based, human
[2] = test system: NCl/ADR-RES; assay: NCI60 screening, Ovarian Cancer, NCl/ADR-RES; type: cell-based, human
[3] = test system: PC-3 prostate cancer cells; assay: MTT assay of PC-3 cell viability; type: cell-based; conditions: MTT assay, 24, 48 and 72 h; comparison in words
Protocol: Each data point represents means±S.D. (n=6). The activity of OSU-A9M versus its parent compound A9 ([1-(3′-nitro-4′-chlorobenzenesulfonyl)-1H-indol-3-yl]-methanol) and its fluorinated counterpart OSU-A9F ([1-(4-Chloro-3-nitro-benzenesulfonyl)-5-fluoro-1H-indol-3-yl])-methanol in suppressing the cell viability of PC-3 prostate cancer cells was compared using the MTT [3-(4,5-dimethylthiazol-2-yl)-2,5-diphenyl-2H-tetrazolium bromide] assay. Cancer cells and PrECs were grown in 5% FBS-supplemented RPMI 1640 medium or 5% FBS-supplemented prostate epithelial growth medium, respectively, in 96-well, flat-bottomed plates for 24 h, and then exposed to various concentrations of test agents in the same medium for the indicated time intervals. Controls received DMSO vehicle at a concentration equal to that in drug-treated cells. At the end of the treatment, the medium was removed, replaced by 200 μL of 0.5 mg/mL of MTT in the same medium, and cells were incubated in the CO2 incubator at 37° C. for 2 h. Supernatants were removed from the wells, and the reduced MTT dye was solubilized in 200 μL/well DMSO. Absorbance at 570 nm was determined on a plate reader.

[4] = test system: A498; assay: NCI60 screening, Renal Cancer, A498; type: cell-based, human
[5] = test system: MALME-3M; assay: NCI60 screening, Melanoma, MALME-3M; type: cell-based, human
[6] = test system: SK-MEL-28; assay: NCI60 screening, Melanoma, SK-MEL-28; type: cell-based, human
[7] = test system: EKVX; assay: NCI60 screening, Non-Small Cell Lung Cancer, EKVX; type: cell-based, human
[8] = test system: U251; assay: NCI60 screening, CNS Cancer, U251; type: cell-based, human
[9] = test system: SN12C; assay: NCI60 screening, Renal Cancer, SN12C; type: cell-based, human
[10] = test system: COLO 205; assay: NCI60 screening, Colon Cancer, COLO 205; type: cell-based, human
[11] = test system: PC-3 xenograft tumor; assay: PC-3 xenograft tumor growth in nude mice, oral gavage; type: in vivo; conditions: after 7 weeks, P<0.05
Protocol: FIG. 2 provides three graphs (A-C) showing the in vivo effects of OSU-A9M (C) versus OSU-A9 (A) and OSU-A9 F (B), each at 25 and 50 mg/kg per day by oral gavage, on suppressing PC-3 xenograft tumor growth in nude mice (n=6).
The efficacy studies were therefore repeated with OSU-A9M and OSU-A9F, following 42 days and 49 days treatment, respectively, versus OSU-A9 with 49-day treatment.
In all three treatments, the body weights of drug-treated mice were not affected. No signs of overt toxicity were observed.

[12] = test system: SF-539; assay: NCI60 screening, CNS Cancer, SF-539; type: cell-based, human
[13] = test system: HCT-15; assay: NCI60 screening, Colon Cancer, HCT-15; type: cell-based, human
[14] = test system: HS 578T; assay: NCI60 screening, Breast Cancer, HS 578T; type: cell-based, human
[15] = test system: SNB-19; assay: NCI60 screening, CNS Cancer, SNB-19; type: cell-based, human
[16] = Homo sapiens, read-out: LC50 (the source's name)

In the case of `Cc1ccc2c(c1)c(CO)cn2S(=O)(=O)c1ccc(Cl)c([N+](=O)[O-])c1` [OSU-A9M, [1-(4-chloro-3-nitro-benzenesulfonyl)-5-methyl-1H-indol-3-yl]-methanol], the TGI [1] is reported as 2.21E−6, the GI50 ([1]; Homo sapiens) is reported as 0.582 µM and the CC50 [1, 16] is reported as 6.09 µM. The “Percent Growth” value ([1]; Log10 Concentration −4.0) was −82%, the “Percent Growth” value ([1]; Log10 Concentration −5.0) was −75% and the “Percent Growth” value ([1]; Log10 Concentration −6.0) was 39%. The “Percent Growth” value ([1]; Log10 Concentration −7.0) was 85%, the “Percent Growth” value ([1]; Log10 Concentration −8.0) was 84% and the TGI [2] was 3.32E−6. For the same compound, the GI50 ([2]; Homo sapiens) was 1.81 µM, the CC50 [2, 16] was 6.09 µM and the “Percent Growth” value ([2]; Log10 Concentration −4.0) was −93%. For the same compound, the “Percent Growth” value ([2]; Log10 Concentration −5.0) was −91%, the “Percent Growth” value ([2]; Log10 Concentration −6.0) was 99% and the “Percent Growth” value ([2]; Log10 Concentration −7.0) was 102%. For the same compound, the “Percent Growth” value ([2]; Log10 Concentration −8.0) was 96%, the “In vitro potency against the viability of PC-3 cells” value [3] was “greater than or similar to that of OSU-A9; also recorded: greater potency than OSU-A9 and OSU-A9F” and the TGI [4] was 2.79E−6. For the same compound, the GI50 ([4]; Homo sapiens) was 1.33 µM, the CC50 [4, 16] was 5.87 µM and the “Percent Growth” value ([4]; Log10 Concentration −4.0) was −100%. For the same compound, the “Percent Growth” value ([4]; Log10 Concentration −5.0) was −86%, the “Percent Growth” value ([4]; Log10 Concentration −6.0) was 69% and the “Percent Growth” value ([4]; Log10 Concentration −7.0) was 62%. For the same compound, the “Percent Growth” value ([4]; Log10 Concentration −8.0) was 75%, the GI50 ([5]; Homo sapiens, Malme-3M) was 1.87 µM and the CC50 ([5]; Homo sapiens, Malme-3M, read-out: LC50 (the source's name)) was 9 µM. The TGI ([5]; MALME-3M) was 4.10E−6, the “Percent Growth” value ([5]; MALME-3M, Log10 Concentration −4.0) was −75% and the “Percent Growth” value ([5]; MALME-3M, Log10 Concentration −5.0) was −57%. The “Percent Growth” value ([5]; MALME-3M, Log10 Concentration −6.0) was 90%, the “Percent Growth” value ([5]; MALME-3M, Log10 Concentration −7.0) was 78% and the “Percent Growth” value ([5]; MALME-3M, Log10 Concentration −8.0) was 83%. The TGI [6] was 2.91E−6, the GI50 ([6]; Homo sapiens) was 1.57 µM and the LC50 ([6]; Homo sapiens) was 5.4 µM. The “Percent Growth” value ([6]; Log10 Concentration −4.0) was −100%, the “Percent Growth” value ([6]; Log10 Concentration −5.0) was −100% and the “Percent Growth” value ([6]; Log10 Concentration −6.0) was 87%. The “Percent Growth” value ([6]; Log10 Concentration −7.0) was 89%, the “Percent Growth” value ([6]; Log10 Concentration −8.0) was 93% and the TGI [7] was 3.15E−6. The GI50 ([7]; Homo sapiens) was 1.6 µM, the CC50 [7, 16] was 6.21 µM and the “Percent Growth” value ([7]; Log10 Concentration −4.0) was −93%. For the same compound, the “Percent Growth” value ([7]; Log10 Concentration −5.0) was −85%, the “Percent Growth” value ([7]; Log10 Concentration −6.0) was 85% and the “Percent Growth” value ([7]; Log10 Concentration −7.0) was 99%. For the same compound, the “Percent Growth” value ([7]; Log10 Concentration −8.0) was 91%, the TGI [8] was 2.91E−6 and the GI50 ([8]; Homo sapiens, U-251) was 1.57 µM. For the same compound, the CC50 ([8]; Homo sapiens, U-251, read-out: LC50 (the source's name)) was 5.4 µM, the “Percent Growth” value ([8]; Log10 Concentration −4.0) was −100% and the “Percent Growth” value ([8]; Log10 Concentration −5.0) was −100%. For the same compound, the “Percent Growth” value ([8]; Log10 Concentration −6.0) was 87%, the “Percent Growth” value ([8]; Log10 Concentration −7.0) was 87% and the “Percent Growth” value ([8]; Log10 Concentration −8.0) was 90%. The TGI [9] was 2.99E−6, the GI50 ([9]; Homo sapiens) was 1.41 µM and the CC50 [9, 16] was 6.31 µM. The “Percent Growth” value ([9]; Log10 Concentration −4.0) was −88%, the “Percent Growth” value ([9]; Log10 Concentration −5.0) was −81% and the “Percent Growth” value ([9]; Log10 Concentration −6.0) was 73%. The “Percent Growth” value ([9]; Log10 Concentration −7.0) was 92%, the “Percent Growth” value ([9]; Log10 Concentration −8.0) was 68% and the TGI [10] was 3.14E−6. For the same compound, the GI50 ([10]; Homo sapiens) was 1.7 µM, the CC50 [10, 16] was 5.79 µM and the “Percent Growth” value ([10]; Log10 Concentration −4.0) was −87%. For the same compound, the “Percent Growth” value ([10]; Log10 Concentration −5.0) was −95%, the “Percent Growth” value ([10]; Log10 Concentration −6.0) was 93% and the “Percent Growth” value ([10]; Log10 Concentration −7.0) was 92%. The “Percent Growth” value ([10]; Log10 Concentration −8.0) was 98%, the “Suppression of the volume of PC-3 tumor growth” value ([11]; 25 mg/kg per day by gavage) was 44.0% and the “Suppression of the volume of PC-3 tumor growth” value ([11]; 50 mg/kg per day by gavage) was 67.6%. It also gave a TGI [12] of 2.94E−6, a GI50 ([12]; Homo sapiens) of 1.6 µM and a CC50 [12, 16] of 5.42 µM. The “Percent Growth” value ([12]; Log10 Concentration −4.0) was −100%, the “Percent Growth” value ([12]; Log10 Concentration −5.0) was −100% and the “Percent Growth” value ([12]; Log10 Concentration −6.0) was 88%. For the same compound, the “Percent Growth” value ([12]; Log10 Concentration −7.0) was 94%, the “Percent Growth” value ([12]; Log10 Concentration −8.0) was 93% and the TGI [13] was 2.82E−6. For the same compound, the GI50 ([13]; Homo sapiens) was 1.5 µM, the CC50 [13, 16] was 5.31 µM and the “Percent Growth” value ([13]; Log10 Concentration −4.0) was −100%. The “Percent Growth” value ([13]; Log10 Concentration −5.0) was −100%, the “Percent Growth” value ([13]; Log10 Concentration −6.0) was 82% and the “Percent Growth” value ([13]; Log10 Concentration −7.0) was 94%. The “Percent Growth” value ([13]; Log10 Concentration −8.0) was 92%, the TGI [14] was 3.05E−6 and the GI50 ([14]; Homo sapiens) was 1.02 µM. For the same compound, the CC50 [14, 16] was 9.11 µM, the “Percent Growth” value ([14]; Log10 Concentration −4.0) was −63% and the “Percent Growth” value ([14]; Log10 Concentration −5.0) was −54%. For the same compound, the “Percent Growth” value ([14]; Log10 Concentration −6.0) was 51%, the “Percent Growth” value ([14]; Log10 Concentration −7.0) was 88% and the “Percent Growth” value ([14]; Log10 Concentration −8.0) was 83%. The TGI [15] was 2.97E−6, the GI50 ([15]; Homo sapiens) was 1.62 µM and the CC50 [15, 16] was 5.45 µM. The “Percent Growth” value ([15]; Log10 Concentration −4.0) was −100%, the “Percent Growth” value ([15]; Log10 Concentration −5.0) was −100% and the “Percent Growth” value ([15]; Log10 Concentration −6.0) was 90%. The “Percent Growth” value ([15]; Log10 Concentration −7.0) was 86% and the “Percent Growth” value ([15]; Log10 Concentration −8.0) was 88%.
